From patent US20240116985A1, “STAPLED PEPTIDES AND METHODS THEREOF” (priority 2020, published 2024) come the findings set out here.

Values after ≈ are worked out from the molar mass of the structure shown. Like-named read-outs stand apart in the source and are kept apart here.

The target in series [1] is T1, full-length beta-Catenin (Uniprot ID P35222) (Homo sapiens, UniProt P35222).
T1 construct: 10 nM full-length beta-Catenin (Uniprot ID P35222)
T1 sequence (P35222 1-781): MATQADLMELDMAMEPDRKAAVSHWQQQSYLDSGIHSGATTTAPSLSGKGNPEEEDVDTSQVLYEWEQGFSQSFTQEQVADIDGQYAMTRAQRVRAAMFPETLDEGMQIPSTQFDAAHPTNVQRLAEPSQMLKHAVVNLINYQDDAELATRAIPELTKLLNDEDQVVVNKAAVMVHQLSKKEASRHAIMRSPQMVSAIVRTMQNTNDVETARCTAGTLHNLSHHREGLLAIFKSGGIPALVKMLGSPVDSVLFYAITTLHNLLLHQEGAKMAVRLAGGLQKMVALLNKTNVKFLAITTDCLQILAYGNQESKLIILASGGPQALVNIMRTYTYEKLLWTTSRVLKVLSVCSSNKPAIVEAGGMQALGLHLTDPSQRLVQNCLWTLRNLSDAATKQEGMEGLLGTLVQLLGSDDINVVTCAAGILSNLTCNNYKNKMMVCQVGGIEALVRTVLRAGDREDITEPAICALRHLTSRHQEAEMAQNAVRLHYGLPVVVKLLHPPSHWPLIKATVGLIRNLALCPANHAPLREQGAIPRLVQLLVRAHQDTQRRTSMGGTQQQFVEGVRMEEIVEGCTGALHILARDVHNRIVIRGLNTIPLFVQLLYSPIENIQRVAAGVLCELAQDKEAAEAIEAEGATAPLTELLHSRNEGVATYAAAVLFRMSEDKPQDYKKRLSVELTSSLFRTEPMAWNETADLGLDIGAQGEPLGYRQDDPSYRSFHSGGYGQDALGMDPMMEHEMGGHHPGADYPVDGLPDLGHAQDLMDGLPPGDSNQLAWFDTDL
Kind of series: Fluorescence polarization IC50 (beta-catenin / 5FAM-TCF4 10-53 competition). In kind it is binding. A general note: Fluorescence polarisation rises when a labelled molecule tumbles more slowly, as on binding a larger partner.

A further series in a line: CHI Log D procedure. The class given is physicochemical. Conditions: for chromatographic logD: pH 7.4, CHI Log D; for CHI Log D: pH 7.4.
The next series in a line: Solubility in PBS. The class given is physicochemical. Put shortly:
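HPLC quantitation of peptide remaining in the PBS supernatant after ultracentrifugation, referenced to a 50 μM solution in DMSO.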

Where [2] appears, read: fluorescence polarization, read-out: beta-Catenin FP IC50.

As for `CC(=O)N1CCC[C@]12CC=CCCCC1(CCCC=CCCCCCC[C@@](C)(C(=O)N[C@@H](Cc3ccccc3)C(=O)N[C@@H](Cc3csc4ccccc34)C(=O)N[C@@H](CCC(N)=O)C(N)=O)NC(=O)[C@H](CCC(N)=O)NC(=O)[C@H](Cc3ccccc3)NC(=O)[C@H](C)NC(=O)[C@H](C)NC(=O)[C@H](CCC(=O)O)NC(=O)[C@H](CC(=O)O)NC1=O)NC(=O)[C@H](C(C)C)NC(=O)[C@H](CC(=O)O)NC2=O` (stereo partly drawn) [I-410, Ac-PL3-Asp-Val-B5-Asp-Glu-Ala-Ala-Phe-Gln-S8-Phe-BztA-Gln-NH2], in series [1] (setting [2]), the IC50 was 50 nM. In addition, in the series “CHI Log D procedure”, the chromatographic logD – broadly, a lipophilicity value derived from retention on a column – worked out at 2.26. Besides, in the series “Solubility in PBS”, the Solubility (commonly the dissolved amount per volume that the medium holds) turned out to be 50 µM (≈ 93.5 µg/mL).
The corresponding values for `CCCC[C@@H]1NC(=O)[C@H](CC(=O)O)NC(=O)[C@]2(CC=CCCCC3(CCCC=CCCCCCC[C@@](C)(C(=O)N[C@@H](Cc4ccccc4)C(=O)N[C@@H](Cc4csc5ccccc45)C(=O)N[C@@H](CCC(N)=O)C(N)=O)NC(=O)[C@H](C)NC(=O)[C@H](Cc4ccccc4)NC(=O)[C@H](C)NC(=O)[C@H](C)NC(=O)[C@H](CCC(=O)O)NC(=O)[C@H](CC(=O)O)NC3=O)NC1=O)CCCN2C(C)=O` (stereo partly drawn) [I-411, Ac-PL3-Asp-nLeu-B5-Asp-Glu-Ala-Ala-Phe-Ala-S8-Phe-BztA-Gln-NH2] are 189 nM, 2.57 and 50 µM (≈ 91.3 µg/mL).
Consider `CC(=O)N1CCC[C@]12CC=CCCCC1(CCCC=CCCCCCC[C@@](C)(C(=O)N[C@@H](Cc3ccccc3)C(=O)N[C@@H](Cc3csc4ccccc34)C(=O)N[C@@H](CCC(N)=O)C(N)=O)NC(=O)[C@H](CCC(N)=O)NC(=O)[C@H](Cc3ccccc3)NC(=O)[C@H](C)NC(=O)[C@H](C)NC(=O)[C@H](Cc3nn[nH]n3)NC(=O)[C@H](CC(=O)O)NC1=O)NC(=O)[C@H](C)NC(=O)[C@H](CC(=O)O)NC2=O` (stereo partly drawn) [I-413, Ac-PL3-Asp-Ala-B5-Asp-tetz-Ala-Ala-Phe-Gln-S8-Phe-BztA-Gln-NH2], for which, in series [1] (setting [2]), the IC50 is 90 nM. The same molecule gave a chromatographic logD in “CHI Log D procedure” of 2. This molecule also came in with a Solubility in “Solubility in PBS” (Solubility (uM)) of 31 µM (≈ 57.4 µg/mL).
On to `CC(=O)N1CCC[C@]12CC=CCCCC1(CCCC=CCCCCCC[C@@](C)(C(=O)N[C@@H](Cc3ccccc3)C(=O)N[C@@H](Cc3csc4ccccc34)C(=O)N[C@@H](CCC(N)=O)C(N)=O)NC(=O)[C@H](CCC(N)=O)NC(=O)[C@H](Cc3ccccc3)NC(=O)[C@H](C)NC(=O)[C@H](C)NC(=O)[C@H](CCC(=O)O)NC(=O)[C@H](Cc3nn[nH]n3)NC1=O)NC(=O)[C@H](C)NC(=O)[C@H](CC(=O)O)NC2=O` (stereo partly drawn) [I-414, Ac-PL3-Asp-Ala-B5-tetz-Glu-Ala-Ala-Phe-Gln-S8-Phe-BztA-Gln-NH2], for which the IC50 in series [1] (setting [2]) and in series [1] (read-out: FP EC50) was 3420 nM in each case. Further, the “CHI Log D” value in the series “CHI Log D procedure” was 2.096. In addition, the “Solubility” value in “Solubility in PBS” is 19 µM (≈ 35.4 µg/mL).
Consider `CC(=O)N1CCC[C@]12CC=CCCCC1(CCCC=CCCCCCC[C@@](C)(C(=O)N[C@@H](Cc3ccccc3)C(=O)N[C@@H](Cc3csc4ccccc34)C(=O)N[C@@H](CCC(N)=O)C(N)=O)NC(=O)[C@H](CCC(N)=O)NC(=O)[C@H](Cc3ccccc3)NC(=O)[C@H](C)NC(=O)[C@H](C)NC(=O)[C@H](CCC(=O)O)NC(=O)[C@H](Cc3nn[nH]n3)NC1=O)NC(=O)[C@H](C)NC(=O)[C@H](CC(=O)O)NC2=O` (stereo partly drawn) [I-415, Ac-PL3-Asp-Ala-B5-tetz-Glu-Ala-Ala-Phe-Gln-S8-Phe-BztA-Gln-NH2], for which the IC50 in series [1] (setting [2]) and in series [1] (read-out: FP EC50) was 2200 nM throughout. Also, the “CHI Log D” value in “CHI Log D procedure” worked out at 2.125. In “Solubility in PBS”, the “Solubility” value was found to be 45 µM (≈ 83.9 µg/mL).
As for `CC(=O)N1CCC[C@]12CC=CCCCC1(CCCC=CCCCCCC[C@@](C)(C(=O)N[C@@H](Cc3ccccc3)C(=O)N[C@@H](Cc3csc4ccccc34)C(=O)N[C@@H](Cc3c[nH]cn3)C(N)=O)NC(=O)[C@H](CCC(N)=O)NC(=O)[C@H](Cc3ccccc3)NC(=O)[C@H](C)NC(=O)[C@H](C)NC(=O)[C@H](CCC(=O)O)NC(=O)[C@H](CC(=O)O)NC1=O)NC(=O)[C@H](C)NC(=O)[C@H](CC(=O)O)NC2=O` (stereo partly drawn) [I-418, Ac-PL3-Asp-Ala-B5-Asp-Glu-Ala-Ala-Phe-Gln-S8-Phe-BztA-His-NH2], the IC50 in series [1] (setting [2]) and in series [1] (read-out: FP EC50) was 149 nM in each case. In addition, in “CHI Log D procedure”, the “CHI Log D” value was determined as 2.089. The “Solubility” value in the series “Solubility in PBS” was 32 µM (≈ 59.2 µg/mL).
For the molecule `CC(=O)N1CCC[C@]12CC=CCCCC1(CCCC=CCCCCCC[C@@](C)(C(=O)N[C@@H](Cc3ccccc3)C(=O)N[C@@H](Cc3csc4ccccc34)C(=O)N[C@@H](Cc3c[nH]cn3)C(N)=O)NC(=O)[C@H]([C@@H](C)O)NC(=O)[C@H](Cc3ccccc3)NC(=O)[C@H](C)NC(=O)[C@H](C)NC(=O)[C@H](CCC(=O)O)NC(=O)[C@H](CC(=O)O)NC1=O)NC(=O)[C@H](C)NC(=O)[C@H](CC(=O)O)NC2=O` (stereo partly drawn) [I-420, Ac-PL3-Asp-Ala-B5-Asp-Glu-Ala-Ala-Phe-Thr-S8-Phe-BztA-His-NH2], the IC50 in series [1] (setting [2]) is 128 nM. This molecule registered a chromatographic logD in “CHI Log D procedure” of 2.16. In the series “Solubility in PBS” (Solubility (uM)), this molecule gave a Solubility of 24 µM (≈ 43.8 µg/mL).
Turning to `CC(=O)N1CCC[C@]12CC=CCCCC1(CCCC=CCCCCCC[C@@](C)(C(=O)N[C@@H](Cc3ccccc3)C(=O)N[C@@H](Cc3csc4ccccc34)C(=O)N[C@@H](Cc3c[nH]cn3)C(N)=O)NC(=O)[C@H](CC(N)=O)NC(=O)[C@H](Cc3ccccc3)NC(=O)[C@H](C)NC(=O)[C@H](C)NC(=O)[C@H](CCC(=O)O)NC(=O)[C@H](CC(=O)O)NC1=O)NC(=O)[C@H](C)NC(=O)[C@H](CC(=O)O)NC2=O` (stereo partly drawn) [I-421, Ac-PL3-Asp-Ala-B5-Asp-Glu-Ala-Ala-Phe-Asn-S8-Phe-BztA-His-NH2], the IC50 in series [1] (setting [2]) and in series [1] (read-out: FP EC50) was 99 nM each time. Further, the “CHI Log D” value in the series “CHI Log D procedure” was 2.087. The “Solubility” value in the series “Solubility in PBS” stood at 36 µM (≈ 66.1 µg/mL).
For the molecule `CC(=O)N1CCC[C@]12CC=CCCCC1(CCCC=CCCCCCC[C@@](C)(C(=O)N[C@@H](Cc3ccccc3)C(=O)N[C@@H](Cc3csc4ccccc34)C(=O)N[C@@H](Cc3c[nH]cn3)C(N)=O)NC(=O)[C@H](CC(N)=O)NC(=O)[C@H](Cc3ccccc3)NC(=O)[C@H](C)NC(=O)[C@H](C)NC(=O)[C@H](CCC(=O)O)NC(=O)[C@H](CC(=O)O)NC1=O)NC(=O)[C@H](C)NC(=O)[C@H](CC(=O)O)NC2=O` (stereo partly drawn) [I-422, Ac-PL3-Asp-Ala-B5-Asp-Glu-Ala-Ala-Phe-Asn-S8-Phe-BztA-His-NH2], the IC50 in series [1] (setting [2]) and in series [1] (read-out: FP EC50) was 27 nM in each case. In addition, in “CHI Log D procedure”, the “CHI Log D” value was determined as 2.136. Also, the “Solubility” value in the series “Solubility in PBS” came out at 24 µM (≈ 44.1 µg/mL).
On to `CC(=O)N1CCC[C@]12CC=CCCCC1(CCCC=CCCCCCC[C@@](C)(C(=O)N[C@@H](Cc3ccccc3)C(=O)N[C@@H](Cc3csc4ccccc34)C(=O)N[C@@H](CCC(N)=O)C(N)=O)NC(=O)[C@H]([C@@H](C)O)NC(=O)[C@H](Cc3ccccc3)NC(=O)[C@H](C)NC(=O)[C@H](C)NC(=O)[C@H](CCC(=O)O)NC(=O)[C@H](CC(=O)O)NC1=O)NC(=O)[C@H](C)NC(=O)[C@H](CC(=O)O)NC2=O` (stereo partly drawn) [I-423, Ac-PL3-Asp-Ala-B5-Asp-Glu-Ala-Ala-Phe-Thr-S8-Phe-BztA-Gln-NH2], for which the IC50 in series [1] (setting [2]) was 105 nM. This molecule also showed a chromatographic logD in the series “CHI Log D procedure” of 2.09. In “Solubility in PBS” (Solubility (uM)), this molecule registered a Solubility of 48 µM (≈ 87.1 µg/mL).
Regarding `CC(=O)N1CCC[C@]12CC=CCCCC1(CCCC=CCCCCCC[C@@](C)(C(=O)N[C@@H](Cc3ccccc3)C(=O)N[C@@H](Cc3csc4ccccc34)C(=O)N[C@@H](CCC(N)=O)C(N)=O)NC(=O)[C@H](CC(N)=O)NC(=O)[C@H](Cc3ccccc3)NC(=O)[C@H](C)NC(=O)[C@H](C)NC(=O)[C@H](CCC(=O)O)NC(=O)[C@H](CC(=O)O)NC1=O)NC(=O)[C@H](C)NC(=O)[C@H](CC(=O)O)NC2=O` (stereo partly drawn) [I-424, Ac-PL3-Asp-Ala-B5-Asp-Glu-Ala-Ala-Phe-Asn-S8-Phe-BztA-Gln-NH2], the IC50 in series [1] (setting [2]) and in series [1] (read-out: FP EC50) was 170 nM in each case. The “CHI Log D” value in “CHI Log D procedure” is given as 1.968. Also, in the series “Solubility in PBS”, the “Solubility” value turned out to be 50 µM (≈ 91.4 µg/mL).
In the case of `CC(=O)N1CCC[C@]12CC=CCCCC1(CCCC=CCCCCCC[C@@](C)(C(=O)N[C@@H](Cc3ccccc3)C(=O)N[C@@H](Cc3csc4ccccc34)C(=O)N[C@@H](CCC(N)=O)C(N)=O)NC(=O)[C@H](CC(N)=O)NC(=O)[C@H](Cc3ccccc3)NC(=O)[C@H](C)NC(=O)[C@H](C)NC(=O)[C@H](CCC(=O)O)NC(=O)[C@H](CC(=O)O)NC1=O)NC(=O)[C@H](C)NC(=O)[C@H](CC(=O)O)NC2=O` (stereo partly drawn) [I-425, Ac-PL3-Asp-Ala-B5-Asp-Glu-Ala-Ala-Phe-Asn-S8-Phe-BztA-Gln-NH2], the IC50 in series [1] (setting [2]) and in series [1] (read-out: FP EC50) was 50 nM throughout. The “CHI Log D” value in the series “CHI Log D procedure” is on record as 2.01. In the series “Solubility in PBS”, the “Solubility” value worked out at 45 µM (≈ 82.2 µg/mL).
